{"source": "paper PMC11099041", "about": "“Tissue distribution and retention drives efficacy of rapidly clearing VHL-based PROTACs” (Communications Medicine, 2024)", "key": {"[1]": {"assay": "In vitro metabolism in rat hepatocytes", "details": "5 µM A947, 3 hr", "method": "(§1) Hepatocyte cell count was ~1.1–1.8 × 10^6 cells/mL. After 3 h, samples were quenched with 3 volumes of acetonitrile, vortex mixed, and centrifuged. The supernatant (5 µL) was analyzed by LC-MS using a Kinetex EVO C18 column (1.7 μm, 2.1 × 150 mm) at 40 °C with a flow rate of 0.4 mL/min. Mobile phase A was 20 mM ammonium acetate in water, and mobile phase B was acetonitrile. The column was initially held at 5% B for 2 min, increased to 75% B over 33 minutes, and then increased to 95% B over 3 min, where it was maintained for 3 minutes before returning to 5% B over 0.5 min for re-equilibration. Mass spectrometry data was acquired using positive ion mode and data-dependent MS^2 acquisition."}, "[2]": {"assay": "In vitro metabolism in human hepatocytes", "details": "human hepatocytes, 5 µM A947, 3 hr", "method": "as §1"}, "[3]": {"assay": "Metabolite profiling in rat bile, urine and feces (radio-HPLC, LC-HRMS)", "type": "in vivo", "details": "for %rad in feces: pooled feces", "experimental": "Tissue homogenate samples at 24 hours were extracted as plasma samples. […] The pooled urine samples containing 10% MeOH were analyzed by liquid chromatography-high resolution mass spectrometry (LC-HRMS).\nThe pooled bile sample containing 10% MeOH was analyzed by LC-HRMS.\nFeces samples obtained from BDC and intact rats were pooled separately across time intervals for each animal (5% w/v) and further pooled across animals for each group to generate a 0–68 hour pooled sample. Approximately 1–2 g of each pooled feces sample was extracted as the same protocol used for plasma samples. […] The reconstituted samples were analyzed by LC-HRMS.\nThe reconstituted samples were analyzed by LC-HRMS, with eluent fractions collected at 10-second intervals into 96-well plates containing solid scintillant. Radioactivity in each well was determined using TopCount analysis, and radiochemical profiles were generated based on radioactivity counts. Structural elucidation was performed based on mass spectral interpretation to identify metabolites.\nFor metabolite profiling and identification, LC-MS analysis used a Shimadzu/Nexera LC-30 AD liquid chromatographic system and a ThermoFisher Scientific Q Exactive with a positive/negative heated electrospray interface. The column was a Waters XSelect HSS T3 4.6 mm × 250 mm, 3.5 µm and maintained at 40 °C. The mobile phases were (A) 20 mM ammonium acetate in water and (B) acetonitrile. […] The flow was 1 mL/min and split 20% to mass analysis and 80% collected for radioactivity counting. Mass spectrometry data was acquired with full scans at a resolution of 70,000 for a m/z range of 300 to 1500, and MS/MS scans were acquired at a resolution of 17,500. The mass spectrometer was operated with a normalized collision energy of 30 (ESI+), S-Lens RF level of 60, source voltage of +3.5 kV, Capillary temperature of 320 °C, and Probe heater temperature of 300 °C."}, "[4]": {"assay": "Protein binding by equilibrium dialysis (plasma, tissue homogenates, DPBS)", "type": "in vitro ADME, rat", "details": "rat, plasma", "experimental": "Control plasma was purchased from BioIVT, Hicksville, New York. Pooled plasma was obtained from at least three rats with K2EDTA as the anticoagulant. Control plasma was used to test the suitability of the system and for positive control analysis. Dulbecco’s phosphate-buffered saline (DPBS) (Millipore Sigma, St Louis, Missouri) was used to test the suitability of the system and as the receiver side of the dialysis device. […] The stock solution was added to the matrix (plasma or DPBS) and swirled to mix. The fortified matrix was then incubated at 37 °C for 15 min. Triplicate aliquots of the fortified matrix were analyzed by LSC.\nThe high throughput dialysis apparatus, model HTD96b, was used (HTDialysis LLC, Gales Ferry, Connecticut). Prior to assembly, dialysis membrane strips (molecular weight cutoff of 6–8 kDa) were hydrated, and the Teflon bars were assembled according to manufacturer’s instructions, with dialysis membrane strips laid between bars creating two compartments per well. The assembled unit was locked in place in the steel base plate. A 150 µL aliquot of each fortified matrix (tissue homogenates, plasma, or DPBS) and DPBS were added to the donor and receiver side of the HTD wells in a Teflon plate, respectively, and the plate was sealed. Samples were incubated at 37 °C and rotated at 300 rpm for 7 hours. After incubation, the seal was removed, and tissue homogenates, plasma, or DPBS and dialysate from each device insert were analyzed by LSC. All protein binding determinations were performed in triplicate.\nDialysis was performed accordingly. The radioactivity concentration of the test article in the donor and receiver samples was determined by LSC (count time 60 min) for the calculation of protein binding. […] After the designated time, aliquots of the individual donor and receiver samples were removed and analyzed by LSC. The remaining sample volume was stored at −20 °C.\nDialysis was performed accordingly.\nProtein binding by equilibrium dialysis:1 PercentDrugBound=(Cm-Cd)/Cm×100 2 PercentDrugUnbound=100-PercentBound where: Cd, concentration of test article in dialysate at equilibrium; Cm, Concentration of test article in matrix at equilibrium.\nRecovery from equilibrium dialysis:3 Recovery(%)=(Cm×Vm)+(Cd×Vd)/(Co×Vo)×100 where: Cm, Concentration of test article in matrix at equilibrium; Cd, Concentration of test article in dialysate at equilibrium; Co, Original concentration of test article in matrix prior to loading the dialysis device; Vm, Nominal volume of the matrix at equilibrium; Vd, Nominal volume of the dialysate at equilibrium; Vo, Nominal volume of the original matrix added to the dialysis device."}, "[5]": {"details": "human, 3 h, 5 µM", "method": "as §1"}, "[6]": {"details": "male, Wistar Han, rat, 3 h, 5 µM", "method": "as §1"}, "[7]": {"details": "Sprague Dawley, in vivo, iv, 4 mg/kg"}, "[8]": {"details": "IV 4 mg/kg, pooled 0–168-hour bile"}}, "note": "Where two headings read alike, the source gives them in different places.", "data": [{"smiles": "Cc1ncsc1-c1ccc(C(C)NC(=O)C2CC(O)CN2C(=O)C(c2cc(N3CCC(C(=O)O)CC3)no2)C(C)C)cc1", "note": "(stereo not drawn) [M3]", "values": [{"measurement": "Estimated relative distribution percent of mass spectral abundance", "setting": "[1]", "value": 0.2, "unit": "%"}, {"measurement": "Estimated relative distribution percent of mass spectral abundance", "setting": "[2]", "value": 0.04, "unit": "%"}]}, {"smiles": "CC(C)C(C(=O)O)c1cc(N2CCC(CN3CCC(OC4CC(Oc5cc(N6C7CCC6CN(c6cc(-c8ccccc8O)nnc6N)C7)ccn5)C4)CC3)CC2)no1", "note": "(stereo not drawn) [M9]", "values": [{"measurement": "%Rad in bile", "setting": "[3]; [7]", "value": 3.08, "unit": "%"}]}, {"smiles": "Nc1nnc(-c2ccccc2O)cc1N1CC2CCC(C1)N2c1ccnc(OC2CC(OC3CCN(C=O)CC3)C2)c1", "note": "(stereo not drawn) [M18]", "values": [{"measurement": "%Rad in bile", "setting": "[3]; [7]", "value": 6.31, "unit": "%"}]}, {"smiles": "CC(=O)CC(c1ccccc1)c1c(O)c2ccccc2oc1=O", "note": "(stereo not drawn) [14C-warfarin, warfarin, reference compound]", "values": [{"measurement": "Percent Unbound", "setting": "[4]; 7 h, 3000 ng/mL", "value": "approximately 1.5%"}, {"measurement": "fraction unbound at 7 h, 3000 ng/mL", "setting": "[4]; Fu", "value": 0.015}, {"measurement": "fraction unbound at 7 h, 3000 ng/mL", "setting": "[4]; Percent Unbound", "value": 0.0146}]}, {"smiles": "CC(C)C(C(=O)N1CC(O)CC1C(=O)O)c1cc(N2CCC(CN3CCC(OC4CC(Oc5cc(N6C7CCC6CN(c6cc(-c8ccccc8O)nnc6N)C7)ccn5)C4)CC3)CC2)no1", "note": "(stereo not drawn) [M8]", "values": [{"measurement": "%Rad in bile", "setting": "[3]; [7]", "value": 3.47, "unit": "%"}]}, {"smiles": "Cc1ncsc1-c1ccc(C(C)NC(=O)C2CC(OC3OC(C(=O)O)C(O)C(O)C3O)CN2C(=O)C(c2cc(N3CCC(CN4CCC(OC5CC(Oc6cc(N7C8CCC7CN(c7cc(-c9ccccc9OC9OC(C(=O)O)C(O)C(O)C9O)nnc7N)C8)ccn6)C5)CC4)CC3)no2)C(C)C)cc1", "note": "(stereo not drawn) [M17]", "values": [{"measurement": "%rad in urine", "setting": "[3]; [7]", "value": 21.86, "unit": "%"}]}, {"smiles": "Nc1nnc(-c2ccccc2O)cc1N1CC2CCC(C1)N2c1ccnc(O)c1", "note": "[M5]", "values": [{"measurement": "Estimated relative distribution percent of mass spectral abundance", "setting": "[5]", "value": 0.1, "unit": "%"}, {"measurement": "%Rad in bile", "setting": "[3]; [8]", "value": 1.49, "unit": "%"}, {"measurement": "%rad in feces", "setting": "[3]; IV 4 mg/kg", "value": 1.86, "unit": "%"}, {"measurement": "%rad in urine", "setting": "[3]; IV 4 mg/kg, pooled urine", "value": 7.53, "unit": "%"}]}, {"smiles": "Nc1nnc(-c2ccccc2O)cc1N1CC2CCC(C1)N2c1ccnc(OC2CC(O)C2)c1", "note": "(stereo not drawn) [M11]", "values": [{"measurement": "Estimated relative distribution percent of mass spectral abundance", "setting": "[5]", "value": 0.8, "unit": "%"}, {"measurement": "%Rad in bile", "setting": "[3]; [8]", "value": 2.79, "unit": "%"}, {"measurement": "%rad in feces", "setting": "[3]; IV 4 mg/kg", "value": 4.34, "unit": "%"}, {"measurement": "%rad in urine", "setting": "[3]; IV 4 mg/kg, pooled urine", "value": 2.93, "unit": "%"}, {"measurement": "Estimated relative distribution percent of mass spectral abundance", "setting": "[6]", "value": 0.8, "unit": "%"}]}, {"smiles": "Nc1nnc(-c2ccccc2O)cc1N1CC2CCC(C1)N2c1ccnc(OC2CC(OC3CCNCC3)C2)c1", "note": "(stereo not drawn) [M10]", "values": [{"measurement": "Estimated relative distribution percent of mass spectral abundance", "setting": "[5]", "value": 2.6, "unit": "%"}, {"measurement": "%Rad in bile", "setting": "[3]; [8]", "value": 4.48, "unit": "%"}, {"measurement": "Estimated relative distribution percent of mass spectral abundance", "setting": "[6]", "value": 2.2, "unit": "%"}]}]}
